One experiment concerns the target RSK2 (Homo sapiens, UniProt P51812). Briefly: Kinase profiling (Dundee), RSK2. It counts as biochemical. Conditions: 25 μM solution.
The next experiment has as its target T1, NUAK1 (Homo sapiens, UniProt O60285).
T1 sequence (O60285 1-661): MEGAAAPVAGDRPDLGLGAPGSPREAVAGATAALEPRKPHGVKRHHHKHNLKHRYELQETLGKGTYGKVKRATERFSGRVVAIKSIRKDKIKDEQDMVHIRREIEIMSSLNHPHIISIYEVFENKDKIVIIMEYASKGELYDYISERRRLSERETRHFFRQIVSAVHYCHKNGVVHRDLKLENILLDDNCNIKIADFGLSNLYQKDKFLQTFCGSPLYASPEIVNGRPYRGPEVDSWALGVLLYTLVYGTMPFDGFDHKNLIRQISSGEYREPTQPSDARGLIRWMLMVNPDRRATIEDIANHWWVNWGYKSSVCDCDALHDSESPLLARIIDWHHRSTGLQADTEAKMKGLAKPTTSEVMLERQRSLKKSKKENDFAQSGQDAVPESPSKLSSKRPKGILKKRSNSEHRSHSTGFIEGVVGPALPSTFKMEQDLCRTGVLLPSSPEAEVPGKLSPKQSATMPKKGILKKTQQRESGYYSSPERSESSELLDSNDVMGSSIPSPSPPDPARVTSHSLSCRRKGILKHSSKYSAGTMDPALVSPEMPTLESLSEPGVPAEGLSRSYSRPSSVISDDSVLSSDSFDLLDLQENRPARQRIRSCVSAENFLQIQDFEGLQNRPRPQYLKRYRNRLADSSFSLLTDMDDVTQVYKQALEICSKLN
The experiment is described as follows: Kinase profiling (Dundee), NUAK1. The class given is biochemical. Conditions: 25 μM solution.

Chain of RSK2 (P51812 whole entry, species assumed): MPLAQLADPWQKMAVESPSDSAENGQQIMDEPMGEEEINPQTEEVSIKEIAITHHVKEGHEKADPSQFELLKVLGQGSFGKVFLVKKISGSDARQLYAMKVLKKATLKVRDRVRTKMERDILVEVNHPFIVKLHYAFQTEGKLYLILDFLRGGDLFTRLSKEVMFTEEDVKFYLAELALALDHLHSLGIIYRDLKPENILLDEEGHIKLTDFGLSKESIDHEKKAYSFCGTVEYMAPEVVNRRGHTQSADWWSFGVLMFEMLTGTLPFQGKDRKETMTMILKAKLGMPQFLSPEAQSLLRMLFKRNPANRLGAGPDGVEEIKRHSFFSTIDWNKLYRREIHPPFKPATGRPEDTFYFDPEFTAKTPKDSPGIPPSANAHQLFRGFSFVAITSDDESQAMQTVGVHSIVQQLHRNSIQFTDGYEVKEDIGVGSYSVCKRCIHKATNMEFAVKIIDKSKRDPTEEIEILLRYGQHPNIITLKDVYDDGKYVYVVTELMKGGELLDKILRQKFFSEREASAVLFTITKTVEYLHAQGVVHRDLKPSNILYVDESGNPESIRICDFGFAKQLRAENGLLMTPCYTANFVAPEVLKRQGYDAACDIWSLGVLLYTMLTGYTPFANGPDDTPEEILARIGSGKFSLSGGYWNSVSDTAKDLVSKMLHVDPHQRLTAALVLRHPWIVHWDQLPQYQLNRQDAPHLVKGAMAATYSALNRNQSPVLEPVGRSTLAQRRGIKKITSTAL

On to `CC(=O)c1cccc(NC(=O)c2sc3nc4cc5c(cc4cc3c2N)OCCO5)c1` [Compound 8, N-(3-acetylphenyl)-9-amino-2,3-dihydro-1,4-dioxino[2,3-g]thieno[2,3-b]quinoline-8-carboxamide], for which the “RSK2 activity, % of control” value on RSK2 was 27 % of control. For the same molecule, the “NUAK1 activity, % of control” value at NUAK1 is 49 % of control.

(Values after publication PMC4001449, “Thienoquinolines as Novel Disruptors of the PKCε/RACK2 Protein–Protein Interaction” (Journal of Medicinal Chemistry, 2014).)
